The METLIN SMRT retention time set (Domingo-Almenara et al. 2019)

Test: gradient 5% acetonitrile 3 min, to 50% in 2 min, to 85% in 15 min, held 3 min, 100 µL/min
Conditions: column: Zorbax Extend-C18 2.1 x 50 mm; eluents: water / acetonitrile, 0.1% formic acid
Outline: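 The mobile phases were water and acetonitrile, each with 0.1% formic acid, pumped at 100 μL/min through a Zorbax Extend-C18 column (2.1 × 50 mm, 1.8 μm). Pure standards were injected as mixtures of ~100 molecules and detected by a quadrupole time-of-flight mass spectrometer in positive and negative ionization mode. Retention time came from computationally picked adduct peaks, each inspected by hand.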

Row | RP-LC retention time | Compound
1 | 841 s | Cc1csc(-c2cc(S(=O)(=O)NC3CC3)cn2CC(=O)N2CCCCC2)n1
2 | 629 s | CCn1c(=O)sc2cc(S(=O)(=O)N3CCC(C(=O)NCc4ccccn4)CC3)ccc21
3 | 630 s | OC[C@H]1O[C@@H](n2cnc3c(NC4CCCC4)ncnc32)C(O)[C@H]1O (stereo not given in full)
4 | 614 s | O=C(O)c1nnn(-c2cccc(F)c2)c1-c1cccnc1
5 | 942 s | Cc1ccc(S(=O)(=O)N2CCC(C)(C(=O)NCc3ccc(F)cc3)CC2)cc1
6 | 831 s | Cc1sc(NC(=O)C(C)C)nc1-c1ccc2c(c1)N(C)C(=O)CO2
7 | 828 s | COc1ccccc1-c1cc(C(N)=O)c2cccc(C)c2n1
8 | 658 s | CCC1CN2C=NC(N3CCN(C(=O)Nc4cc(C)ccc4OC)CC3)=CC2=N1 (stereo not given)
9 | 754 s | O=C(CCn1cnc2cc(-c3noc(-c4ccc(Cl)cc4)n3)ccc21)N1CCOCC1
10 | 945 s | C=CCn1c(C)c(CC(=O)Nc2ccc(F)cc2)c(=O)n2nc(-c3ccc(C)cc3)nc12
11 | 975 s | CC1Cc2cc(-c3cc(CC(=O)N4CCN(c5ccccc5F)CC4)no3)ccc2O1 (stereo not given)
12 | 562 s | CCn1ccc(C(=O)N2CCN(c3nnc4ccc(Cl)cn34)CC2)n1
13 | 751 s | CC(C)(C)c1ccc(C(=O)Nc2nnc(-c3ccccn3)o2)cc1
14 | 984 s | CCOC(=O)c1cccc(NC(=O)CCc2c(-c3ccccc3)nc3ccccn23)c1
15 | 643 s | O=S1(=O)C[C@H](N2CCN(c3ccccn3)CC2)[C@@H](S(=O)(=O)c2ccc(Cl)cc2)C1
16 | 787 s | Cc1ccc(CC(=O)N2CCC3(CC2)NC(=O)c2ccc(F)cc2N3C)cc1
17 | 681 s | COc1ccc(C(=O)Nc2cccc(-c3ccc(S(C)(=O)=O)nn3)c2)cc1OC
18 | 1000 s | O=C(NC1CCCCCC1)c1cccc(-c2nccnc2N2CCCC2)c1
19 | 788 s | CCCCNC(=O)C1CCN(Cc2cc3ccccc3n2Cc2ccccc2Cl)CC1
20 | 754 s | CC(C)OCCCNC(=O)Cn1c(=O)c2cccn2c2ccc(F)cc21
21 | 943 s | COC(=O)c1ccccc1NC(=O)N(Cc1cc(=O)[nH]c2ccccc12)CC(C)C
22 | 793 s | Cc1ccc(NC(=O)N2CCC(CC(=O)N3CCCCC3)CC2)cc1C

Row | RP-LC retention time | Compound
23 | 716 s | Cc1cccc(-c2nn3c(N(C)C)cc(C)nc3c2C)c1
24 | 970 s | O=C(Nc1cnc(-c2ccccc2)nc1)c1cccc(F)c1
25 | 591 s | CCn1c(-c2cccc(C(N)=O)c2)nc2cccnc21
26 | 610 s | Cn1c(N2CCCN(C(=O)CCn3c(C4CCCCC4)nc4ccccc43)CC2)cc(=O)n(C)c1=O
27 | 623 s | CC(C)n1cnc2cc(CNC(=O)Cc3ccc(F)cc3)ccc21
28 | 825 s | O=C(Nc1cccc(OCc2nnc(-c3ccccc3)o2)c1)c1cnccn1
29 | 1140 s | O=c1c2cc(-c3ccc(F)cc3)nn2cnn1Cc1nc(-c2ccccc2Br)no1
30 | 635 s | CCN1CCCC1CNC(=O)Cn1nc(C)n2nc(-c3ccccc3)cc2c1=O (stereo not given)
31 | 671 s | CCn1ccc2cc(S(=O)(=O)N3CCC(C(=O)N4CCN(c5ccccc5)CC4)CC3)ccc21
32 | 582 s | CCC(=O)Nc1ccc(CCc2nc3ccc(C(=O)NC4CC4)cc3[nH]2)cc1
33 | 1160 s | CCc1ccc(NC(=O)Cn2nc(N3CCCC(C)C3)c3ccccc3c2=O)cc1 (stereo not given)
34 | 641 s | CC(NC(=O)c1ccc(C(F)(F)F)cc1)C(=O)Nc1nc2ccccc2[nH]1 (stereo not given)
35 | 1010 s | Cc1noc(C)c1-c1ccc(S(=O)(=O)Nc2ccc(Br)cc2F)cc1
36 | 651 s | COc1ccc(C(=O)N2CCC(c3nc4cccnc4n3C)C2)cc1F (stereo not given)
37 | 855 s | CC(NC(=O)C1=C2CCCN2c2ccccc2S1(=O)=O)c1ccccc1 (stereo not given)
38 | 638 s | COc1ccc(NC(=O)CN2CCc3c(c(=O)c4cc(C)ccc4n3C)C2)cc1Cl
39 | 1070 s | CC(C)c1noc(-c2cc(=O)n(CC(=O)Nc3cccc(Cl)c3)c3ccccc23)n1
40 | 694 s | CCc1ccc(NC(=O)Cn2cnc3nc(N4CCCC(C(=O)NC)C4)sc3c2=O)cc1 (stereo not given)
41 | 623 s | Cc1ccc(C(=O)NCCc2nc3cccnc3n2C)c(C)c1
42 | 755 s | CC(C)Cn1cc(CCNC(=O)Nc2c(F)cccc2F)c2cccnc21
43 | 966 s | Cc1sc(-c2ccn[nH]2)cc1NC(=O)CCc1ccccc1
44 | 1320 s | O=C(N1CC(Oc2ccc(-c3noc(-c4ccccc4)n3)cc2)C1)C1(c2ccccc2)CC1

Row | RP-LC retention time | Compound
45 | 761 s | COc1ccccc1N1CCN(C(=O)CCc2c(C)n(C)c3nc(-c4ccccc4)nn3c2=O)CC1
46 | 1120 s | Cc1ccccc1-c1nc(-c2nnn(Cc3ccccc3)c2C)no1
47 | 877 s | Cc1ccccc1Cn1cc(C(=O)Nc2cccc(Br)c2)ccc1=O
48 | 948 s | CCCn1cc(S(=O)(=O)NCc2ccc(F)cc2Cl)c2cccnc21
49 | 855 s | CCn1cc(S(=O)(=O)NCc2ccc(F)cc2Cl)c2cccnc21
50 | 690 s | Cc1ccc(N2CCN(C(=O)c3cn4cc(C)ccc4n3)CC2)cc1
51 | 709 s | CCCn1cc(CNC(=O)C2CCCN(c3nnc4ccc(C(F)(F)F)cn34)C2)c(C)n1 (stereo not given)
52 | 591 s | CN(C)CCNC(=O)c1ccc(CS(=O)c2ccc(Cl)cc2)o1 (stereo not given)
53 | 800 s | Cn1nc(-c2nc(-c3ccccc3F)no2)c2c1CCN(C(=O)NC1CCCC1)C2
54 | 924 s | CCOCCCNC(=O)c1nnc(-c2ccc(S(=O)(=O)N3CCC(C)CC3)cc2)o1
55 | 930 s | COCc1cc2nn(CC(=O)Nc3c(C)cccc3C)c(=O)n2c(-c2ccccc2)n1
56 | 1150 s | O=C(Cn1cccc1-c1nc(-c2ccc3c(c2)OCO3)no1)NCCC1=CCCCC1
57 | 838 s | Cc1nc2c(C)cccn2c(=O)c1NC(=O)COc1ccc(Cl)cc1Cl
58 | 1200 s | COc1nc2ccccc2nc1N1CCCC(C(=O)Nc2cc(F)ccc2F)C1 (stereo not given)
59 | 564 s | Cc1cc(C)n(CCC(=O)N[C@@H]2CN(S(C)(=O)=O)C[C@H]2CN(C)C)n1
60 | 919 s | CCn1c(=O)c(C)nc2cc(-c3noc(-c4cc(OC)c(OC)c(OC)c4)n3)ccc21
61 | 766 s | OC(CN1CCCCC1)c1ccc(/C=C/c2ccc(Cl)cc2)cc1 (stereo not given)
62 | 629 s | CC(C)c1cc(C(=O)NCc2ccco2)nc2cc(-c3ccccn3)nn12
63 | 780 s | CCOc1cc(CNCCc2c[nH]c3ccccc23)ccc1Oc1nnnn1-c1ccccc1
64 | 738 s | Cc1ccccc1CNC(=O)C1CCN(S(=O)(=O)c2cc(C(=O)N3CCCC3)n(C)c2)CC1

Row | Compound | RP-LC retention time
65 | O=C(c1ccc2ccnc(N3CCN(c4ccc(Cl)cc4)CC3)c2c1)N1CCC2(CC1)OCCO2 | 791 s
